Holding throughout (experiment): greenhouse pre-emergence herbicidal test
What all share (assay type): in vivo
What all share (settings): 250 g/ha, scale 0 to 100

In assay [1] the test system is Setaria faberi. The source says: The culture containers used were plastic flowerpots containing loamy sand with approximately 3.0% of humus as the substrate. The seeds of the test plants were sown separately for each species. For the pre-emergence treatment, the active ingredients, which had been suspended or emulsified in water, were applied directly after sowing by means of finely distributing nozzles. The containers were irrigated gently to promote germination and growth and subsequently covered with transparent plastic hoods until the plants had rooted. This cover caused uniform germination of the test plants, unless this had been impaired by the active ingredients. […] The test period extended over 2 to 4 weeks. During this time, the plants were tended, and their response to the individual treatments was evaluated. Evaluation was carried out using a scale from 0 to 100. 100 means no emergence of the plants, or complete destruction of at least the aerial moieties, and 0 means no damage, or normal course of growth.

Assay [2] relates to Echinocloa crus-galli. The source says:
(§1) The culture containers used were plastic flowerpots containing loamy sand with approximately 3.0% of humus as the substrate. The seeds of the test plants were sown separately for each species.
(§2) For the pre-emergence treatment, the active ingredients, which had been suspended or emulsified in water, were applied directly after sowing by means of finely distributing nozzles. The containers were irrigated gently to promote germination and growth and subsequently covered with transparent plastic hoods until the plants had rooted. This cover caused uniform germination of the test plants, unless this had been impaired by the active ingredients.
(§3) Depending on the species, the plants were kept at 10-25° C. or 20-35° C., respectively.
(§4) The test period extended over 2 to 4 weeks. During this time, the plants were tended, and their response to the individual treatments was evaluated.
(§5) Evaluation was carried out using a scale from 0 to 100. 100 means no emergence of the plants, or complete destruction of at least the aerial moieties, and 0 means no damage, or normal course of growth. A moderate herbicidal activity is given at values of at least 60, a good herbicidal activity is given at values of at least 70, and a very good herbicidal activity is given at values of at least 85.

Assay [3] has as its system Alopercurus myosuroides.
Excerpt: as §1, §2, §3, §4, §5

For assay [4], the system named is Amaranthus retroflexus.
Excerpt: as §1, §2, §3, §4, §5

Take `CC(C)(F)c1nc(N)nc(Nc2c(F)cccc2OC(F)(F)c2ccccc2)n1` [Example 83]: the herbicidal activity in assay [1], in assay [2] and in assay [3] was 100% each time.

Consider `CC(C)C(F)c1nc(N)nc(Nc2c(F)cccc2OCc2ccccc2)n1` (stereo not shown) [Example 65], for which the herbicidal activity in assay [2] and in assay [3] was 95% each time.

Take `CCOc1ccc(COc2c(F)ccc(F)c2Nc2nc(N)nc(C(C)(C)F)n2)cc1` [Example 193]: the herbicidal activity in assay [1] was 100%; in assay [2], 95%; in assay [3] it was 80%.

As to `CC(C)(F)c1nc(N)nc(Nc2c(F)cccc2OCc2ccc(Cl)s2)n1` [Example 120], the figures for the herbicidal activity in assay [1], in assay [2] and in assay [3] were 90%, 100% and 75%, respectively.

In the case of `CC(C)(F)c1nc(N)nc(Nc2c(F)c(F)cc(F)c2OCc2ccccc2F)n1` [Example 203], the herbicidal activity in assay [1], in assay [2] and in assay [3] was 100% throughout.

In the case of `CC(C)(F)c1nc(N)nc(Nc2c(F)ccc(Cl)c2OCc2ccccc2)n1` [Example 148], the herbicidal activity in assay [1], in assay [2] and in assay [4] was 100% throughout.

For `COC(C)(C)c1nc(N)nc(Nc2c(F)cccc2OC(F)(F)c2ccccc2)n1` [Example 117], the herbicidal activity in assay [1], in assay [2] and in assay [4] was 100% throughout.

`CC1(c2nc(N)nc(Nc3c(F)c(F)cc(F)c3OCc3ccccc3)n2)CCC1` [Example 201]: the herbicidal activity in assay [1], in assay [2] and in assay [3] was 100% throughout.

In the case of `CC(C)(C)c1nc(N)nc(Nc2c(F)cccc2OCc2ccccc2)n1` [Example 33], the herbicidal activity in assay [2] worked out at 60%; in assay [3], 75%.

Regarding `COc1ccc(COc2c(F)cc(F)c(F)c2Nc2nc(N)nc(C(C)F)n2)cc1` (stereo not shown) [Example 212], the herbicidal activity in assay [1], in assay [2] and in assay [4] was 100% throughout.

`CC(C)(F)c1nc(N)nc(Nc2c(OC(F)(F)c3ccccc3)cc(F)c(F)c2F)n1` [Example 116]: the herbicidal activity in assay [1], in assay [2] and in assay [4] was 100% each time.

Turning to `CC(C)(F)c1nc(N)nc(Nc2c(F)cccc2OCc2c(Cl)cccc2Cl)n1` [Example 78], the herbicidal activity is 75% in assay [1], 100% in assay [2] and 100% in assay [3].

With `CC(F)c1nc(N)nc(Nc2c(F)c(F)cc(F)c2OCc2ccccc2)n1` (stereo not shown) [Example 209], the herbicidal activity in assay [1], in assay [2] and in assay [4] was 100% each time.

Take `COC(C)c1nc(N)nc(Nc2c(F)ccc(F)c2OCc2ccccc2)n1` (stereo not shown) [Example 191]: the herbicidal activity in assay [1] came out at 100%; in assay [2], 100%; in assay [4], 95%.

For the compound `COC(C)(C)c1nc(N)nc(Nc2c(F)c(F)cc(F)c2OCc2ccccc2)n1` [Example 213], the herbicidal activity in assay [1], in assay [2] and in assay [4] was 100% in each case.

Turning to `COc1cc(F)cc(COc2cccc(F)c2Nc2nc(N)nc(C(C)(C)F)n2)c1` [Example 54], the herbicidal activity in assay [2] was 100%; in assay [3], 90%.

In the case of `CC(C)(F)c1nc(N)nc(Nc2c(F)cccc2OCc2cccc(OC(F)F)c2)n1` [Example 58], the herbicidal activity in assay [1] is on record as 100%; in assay [2] it was 90%; in assay [4] it was 100%.

For `CC(C)(F)c1nc(N)nc(Nc2c(F)c(F)cc(F)c2OCc2ccc(F)cc2)n1` [Example 205], the herbicidal activity in assay [1], in assay [2] and in assay [3] was 100% in each case.

For the compound `COC(C)c1nc(N)nc(Nc2c(F)c(F)cc(F)c2OCc2ccccc2C)n1` (stereo not shown) [Example 237], the figures for the herbicidal activity in assay [1], in assay [2] and in assay [4] were 95%, 100% and 95%, respectively.

With `COC(C)c1nc(N)nc(Nc2c(F)c(F)cc(F)c2OCc2cccc(F)c2)n1` (stereo not shown) [Example 241], the figures for the herbicidal activity in assay [1], in assay [2] and in assay [4] were 85%, 85% and 100%, respectively.

Take `CC(C)(F)c1nc(N)nc(Nc2c(F)c(Br)cc(F)c2OCc2ccccc2)n1` [Example 163]: the herbicidal activity in assay [1], in assay [2] and in assay [3] was 100% each time.

As to `CCOc1cccc(COc2cccc(F)c2Nc2nc(N)nc(C(C)(C)F)n2)c1` [Example 149], the herbicidal activity in assay [1] is 90%; in assay [2] it was 75%; in assay [3], 85%.

For `Cc1cccc(COc2c(F)cc(F)c(F)c2Nc2nc(N)nc(C(C)F)n2)c1` (stereo not shown) [Example 230], the herbicidal activity in assay [1], in assay [2] and in assay [4] was 95% throughout.

On to `Nc1nc(Nc2c(F)c(F)cc(F)c2OCc2ccccc2)nc(C2(F)CCCCC2)n1` [Example 256], for which the herbicidal activity in assay [1], in assay [2] and in assay [4] was 100% each time.

Consider `COc1cccc(COc2c(F)cc(F)c(F)c2Nc2nc(N)nc(C(C)F)n2)c1` (stereo not shown) [Example 211], for which the herbicidal activity in assay [1], in assay [2] and in assay [4] was 100% throughout.

For the compound `CC(C)Oc1cccc(COc2cccc(F)c2Nc2nc(N)nc(C(C)(C)F)n2)c1` [Example 132], the results for the herbicidal activity in assay [1], in assay [2] and in assay [4] were 90%, 100% and 90%, respectively.

Regarding `COC(C)c1nc(N)nc(Nc2c(F)c(F)cc(F)c2OCc2cccc(C)c2)n1` (stereo not shown) [Example 238], the herbicidal activity in assay [1] worked out at 100%; in assay [2], 98%; in assay [4] it was 80%.

As for `CC(C)(F)c1nc(N)nc(Nc2c(F)ccc(F)c2OCc2ccccc2)n1` [Example 72], the herbicidal activity in assay [1], in assay [2] and in assay [4] was 100% each time.

With `COc1ccccc1COc1c(F)cc(F)c(F)c1Nc1nc(N)nc(C(C)F)n1` (stereo not shown) [Example 210], the herbicidal activity in assay [1], in assay [2] and in assay [4] was 100% each time.

`CC(C)=C(F)c1nc(N)nc(Nc2c(F)ccc(F)c2OCc2ccccc2)n1` [Example 160]: the values for the herbicidal activity in assay [1] and in assay [3] were 75% and 85%, respectively.

Consider `COC(C)(C)c1nc(N)nc(Nc2c(F)ccc(F)c2OCc2ccccc2)n1` [Example 135], for which the herbicidal activity in assay [1], in assay [2] and in assay [4] was 100% throughout.

`CC(F)c1nc(N)nc(Nc2c(F)cccc2OC(F)(F)c2ccccc2)n1` (stereo not shown) [Example 171]: the herbicidal activity amounted to 100% in assay [1], 85% in assay [2] and 100% in assay [4].

Consider `CC(C)(F)c1nc(N)nc(Nc2c(OCc3c(F)cccc3Cl)ccc(F)c2F)n1` [Example 176], for which the herbicidal activity in assay [1] is listed as 100%; in assay [2], 100%; in assay [4], 80%.

On to `COc1ccc(COc2ccc(F)c(F)c2Nc2nc(N)nc(C(C)(C)F)n2)cc1` [Example 186], for which the herbicidal activity in assay [2] came to 98%; in assay [3], 85%.

Regarding `COC(C)c1nc(N)nc(Nc2c(F)c(F)cc(F)c2OCc2ccccc2F)n1` (stereo not shown) [Example 240], the herbicidal activity in assay [1] came to 95%; in assay [2] it was 90%; in assay [4] it was 100%.

Consider `CCCC(F)c1nc(N)nc(Nc2c(F)ccc(F)c2OCc2ccccc2)n1` (stereo not shown) [Example 170], for which the herbicidal activity was found to be 90% in assay [1], 100% in assay [2] and 90% in assay [4].

As to `CC(C)(F)c1nc(N)nc(Nc2c(OCc3cccc(F)c3)cc(F)c(F)c2F)n1` [Example 97], the herbicidal activity in assay [1], in assay [2] and in assay [4] was 100% each time.

With `CC(C)(F)c1nc(N)nc(Nc2c(F)cccc2OCc2cccs2)n1` [Example 154], the herbicidal activity in assay [1], in assay [2] and in assay [4] was 100% each time.

The record behind these values is patent US11992012B2, “Diaminotriazine compounds” (BASF SE, priority 2018, dated 2024).
